{"source": "patent US8003602B2", "about": "(priority 2006, dated 2011)", "key": {"S. epidermidis 10221II W": {"system": "S. epidermidis 10221II W", "assay": "MIC, Macro-broth dilution method", "format": "cell-based, Staphylococcus epidermidis", "source_text": "(§1) The in-vitro potency was established by minimum inhibitory concentration (MIC) determinations of the compound PM181104 against bacterial strains, by using the Macro-broth dilution method as per National Committee for Clinical Laboratory Standards (2000) guidelines [Journal of Anti-microbial Chemotherapy, 2002, 50, 125-128 (Cross Reference 8: Methods for Dilution Antimicrobial Susceptibility Tests for Bacteria that Grow Aerobically-Fifth Edition: Approved Standard M7-A5. NCCLS, Wayne, Pa., USA)]. Unless stated otherwise, Mueller-Hinton broth was used as nutrient medium for the assay. Linezolid (manufactured by Glenmark Pharma Ltd; Batch no: K2005028) was used as known standard in all in-vitro experiments. For preparation of the stock solution the compound PM181104 was dissolved in chloroform (5% of the total required volume) and diluted using methanol (95% of the total required volume)."}, "S. epidermidis 32965": {"system": "S. epidermidis 32965", "assay": "MIC, Macro-broth dilution method", "format": "cell-based, Staphylococcus epidermidis", "source_text": "as §1"}, "S. epidermidis 5744IW": {"system": "S. epidermidis 5744IW", "assay": "MIC, Macro-broth dilution method", "format": "cell-based, Staphylococcus epidermidis", "source_text": "as §1"}, "S. epidermidis 6098": {"system": "S. epidermidis 6098", "assay": "MIC, Macro-broth dilution method", "format": "cell-based, Staphylococcus epidermidis", "source_text": "as §1"}, "[1]": {"system": "S. epidermidis 6493II(2)W", "assay": "MIC, Macro-broth dilution method", "format": "cell-based, Staphylococcus epidermidis", "source_text": "as §1"}, "S. epidermidis 823": {"system": "S. epidermidis 823", "assay": "MIC, Macro-broth dilution method", "format": "cell-based, Staphylococcus epidermidis", "source_text": "as §1"}, "S. epidermidis Pat 01 IV": {"system": "S. epidermidis Pat 01 IV", "assay": "MIC, Macro-broth dilution method", "format": "cell-based, Staphylococcus epidermidis", "source_text": "as §1"}, "B. firmus": {"system": "B. firmus", "assay": "MIC, Macro-broth dilution method", "format": "cell-based, Bacillus firmus", "source_text": "as §1"}, "[2]": {"system": "methicillin resistant Staphylococcus aureus E710 (MRSA)", "assay": "Systemic infection model (septicemia)", "format": "in vivo, Balb/C mice", "conditions": "mice infected intraperitoneally with MRSA E710, administered intravenously immediately after infection", "source_text": "The in-vivo potency was established by protection dose (PD) determinations of the compound PM181104 for its antibiotic activity in three animal models using either male or female Balb/C mice.\nThe models used were the general purpose efficacy testing models and organ/tissue specific efficacy testing models. The general purpose efficacy testing models used were systemic infection model (septicemia), and localized infection model (neutropenic thigh model). The Organ/Tissue specific infection models used for efficacy testing were kidney, lung infection, and skin abscess model.\nThe animals were infected intraperitoneally with ˜10^8 to 10^9 cfu of an overnight grown culture of methicillin resistant Staphylococcus aureus E710 (MRSA), suspended in normal saline (0.85% sodium chloride). PM181104 solution was prepared in cremophor-ethanol formulation as described in example 14. The solution was administered intravenously at 5 mg, 2.5 mg and 1.25 mg/kg doses, immediately after infection. Each experimental group consisted of ten animals."}}}
{"smiles": "C=C(NC(=O)C(=C)NC(=O)C1CCCN1C(=O)c1nc(-c2ccc(-c3nc(C(=O)NC(=C)C(=O)NC(C)C(N)=O)cs3)c(-c3csc(C4Cc5nc(cs5)C(=O)NC(Cc5ccccc5)C5=NC(CS5)C(=O)NC(Cc5ccc(O)cc5)C(=O)N5CCCC5c5nc(cs5)C(=O)N4)n3)n2)oc1C)C(N)=O", "note": "(stereo not drawn) [PM181104]", "values": [{"measurement": "MIC", "setting": "S. epidermidis 10221II W", "value": 0.00781, "unit": "µg/mL"}, {"measurement": "MIC", "setting": "S. epidermidis 32965", "value": 0.03125, "unit": "µg/mL"}, {"measurement": "MIC", "setting": "S. epidermidis 5744IW", "value": 0.01563, "unit": "µg/mL"}, {"measurement": "MIC", "setting": "S. epidermidis 6098", "value": 0.0625, "unit": "µg/mL"}, {"measurement": "MIC", "setting": "[1]", "value": 0.0625, "unit": "µg/mL"}, {"measurement": "MIC", "setting": "S. epidermidis 823", "value": 0.03125, "unit": "µg/mL"}, {"measurement": "MIC", "setting": "S. epidermidis Pat 01 IV", "value": 0.0625, "unit": "µg/mL"}, {"measurement": "MIC", "setting": "B. firmus", "value": 0.01563, "unit": "µg/mL"}, {"measurement": "PD100", "setting": "[2]", "value": 5, "unit": "mg/kg"}]}
